Assay results as given in patent US4910193A, “Treatment of gastrointestinal disorders” (Sandoz Ltd., priority 1987, dated 1990).
Structures can show the parent of a compound that is named as a salt. Where two headings read alike, the source gives them in different places.

Assays:
[1] = test system: muscle strips from different parts of the guinea pig stomach; assay: Test A: field stimulation-induced contractions in guinea pig stomach muscle strips; set-up: species or system guinea pig (male Dunkin-Hartley)
Source text: The compounds of the invention facilitate field stimulation-induced contractions in muscle strips from different parts of the guinea pig stomach and are therefore indicated to increase decreased peristalic movements in the stomach and to enhance gastric emptying in vivo. The test is effected as follows:
Male Dunkin-Hartley guinea pigs, 340-450 g, which had been starved overnight, were killed by cervical transsection and the stomach removed and placed in Krebs-Henseleit solution (NaCl 118.0, KCl 4.75, KH2 PO4 1.2, MgSO4 1.2, CaCl2 2.5, glucose 10 mM). Segments were taken from the body (approximately 20 mm long, 3-4 mm wide) with dissection in a plane suitable to investigate tension changes in the circular muscle layer. Tissues were placed in 30 ml organ baths containing oxygenated (95% O2, 5% CO2) Krebs-Henseleit solution at 37° C. One gram tension was applied to the tissues which were allowed to equilibrate for 45-60 min. before electrical stimulation. […] Responses were measured as changes in gram tension, but to allow easier comparison between treatments, data was converted to show changes as percentage values. The significance of differences between control responses and those obtained in the presence of interacting drugs was assessed using the Mann-Whitney U test.

[2] = test system: conscious guinea pigs having stomachs made atonic; assay: Test B: gastric emptying in conscious guinea pigs (X-ray of spheroids); assay type: in vivo, guinea pig; conditions: versus metoclopramide
Experimental: The compounds of the invention also induce gastric emptying as indicated in standard in vivo tests, e.g. in conscious guinea pigs having stomachs made atonic (i.e. having decreased peristaltic movements) by fasting and wherein the passage of glass spheroids was observed by X-ray techniques. The experiments is effected as follows:
Food was withdrawn for 14 hours before the measurement of gastric emptying. The experiment was conducted under low illumination with minimal noise and disturbance, and was carried out only by those experimentors who had daily contact with the guinea pigs and who carried out the initial training to accustom the guinea pigs to handling. Therefore, animals were subject to minimal stress. […] Gastric emptying was measured as the number of spheroids leaving the stomach.
Six guinea pigs were used at each dose level of drug and responses compared to those of guinea pigs receiving the appropriate vehicle. The significance of differences between drug and control responses was assessed using the Mann Whitney U test.

[3] = test system: gastrointestinal motility induced by 5-hydroxytryptophan (5-HTP); assay: Test C: inhibition of increase in gastrointestinal motility induced by 5-HTP; assay type: in vivo, mouse (male NMRI); conditions: Mus musculus, ip; inhibition of 5-HTP induced motility
Experimental: In a further test the inhibition of the compounds of the invention in inhibiting the increase in gastrointestinal motility induced by 5-hydroxytryptophan (5-HTP) was observed.
Male NMRI mice (18-32 g in weight) are deprived of food 20 hours before the test. Water is not limited. The animals are separated by a barrier from their straw and access to feces. At the beginning of the test the animals are separated in individual single cages and water is removed.
All animals were treated with the test compound or saline. I.p. administration was used. Injection volume was 0.1 ml/10 g. 30 minutes after pre-treatment 5-HTP or saline was administered. Injection volume 0.1 ml/10 g. Dose 3 mg/kg. At the same time charcoal was administered perorally (10% suspension in water; 0.1 ml/10 g). 45 minutes after the start of the experiment the animals were killed. The intestines from the stomach to the rectum were examined. For each animal the transit distance of the front of the charcoal mean along the intestine was measured. The distance was ascertained as a percentage of the whole intestinal length. Groups of at least 3 animals were used.

[4] = test system: chloera toxin-induced secretory diarrhea; set-up: species or system mouse (male NMRI); conditions: mouse, in vivo
[5] = test system: high affinity 5-HT receptor; assay: Isolated longitudinal muscle of guinea pig ileum, 5-HT contraction, high affinity receptor
Source text: The isolated longitudinal muscle of the guinea pig ileum with its adhering myenteric plexus is a well established model which permits investigation of the mechanism of action of various neurotransmitters.
Male guinea pigs (200-400 g) were killed by a blow on the head and exsanguineated. A length of small intestine was removed about 2 cm from the ileo-caecal valve. The mesentery was carefully removed and the ileum was stretched over a glass rod. By stroking tangentially away from the mesenteric attachement with a wad of cotton wool, the longitudinal muscle layer was separated and stripped from the unterlying circular muscle. Longitudinal muscle strips, 3-4 cm length, were mounted in a 10 ml organ bath containing Tyrode solution at 37° C. and bubbled with 5% carbon dioxide in oxygen. The Tyrode solution was of the following composition (mmol/l): NaCl, 137.0; CaCl2, 1.8; KCl, 2.7; MgCl2, 1.05; NaHCO3, 11.9; NaH2 PO4, 0.4; glucose, 5.6. The strips were placed under a resting tension of 500 mg. Contractions were recorded with an isotonic pendulum lever. […]
Each concentration was left in contact with the tissue for 1 min. […] Inhibition constants were expressed in the form of pA2 values which were graphically determined according to conventional methods (Arunlakshana and Schild, 1959. McKay 1978). […]

[6] = molecular target: T1, low affinity 5-HT receptor (Cavia porcellus, UniProt O70212); assay: Isolated longitudinal muscle of guinea pig ileum, 5-HT contraction, low affinity receptor; conditions: read-out: pA2 (converted)
T1 construct: The isolated longitudinal muscle of the guinea pig ileum with its adhering myenteric plexus; from tissue; host or cells: longitudinal muscle strips of ileum with myenteric plexus, male guinea pigs
T1 sequence (O70212 20-490): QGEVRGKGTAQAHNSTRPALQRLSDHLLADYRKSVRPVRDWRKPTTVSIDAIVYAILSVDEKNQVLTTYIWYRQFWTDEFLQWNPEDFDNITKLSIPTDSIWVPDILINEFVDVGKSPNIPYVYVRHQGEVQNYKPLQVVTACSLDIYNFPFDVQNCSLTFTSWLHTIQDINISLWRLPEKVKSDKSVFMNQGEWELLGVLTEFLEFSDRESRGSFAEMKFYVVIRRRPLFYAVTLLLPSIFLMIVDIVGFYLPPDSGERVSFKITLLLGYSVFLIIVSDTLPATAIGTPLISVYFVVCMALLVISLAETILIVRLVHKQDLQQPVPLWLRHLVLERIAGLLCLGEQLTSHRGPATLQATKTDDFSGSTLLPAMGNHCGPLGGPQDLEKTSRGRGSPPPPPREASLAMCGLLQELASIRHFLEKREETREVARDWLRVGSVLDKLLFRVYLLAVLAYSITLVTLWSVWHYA
Experimental: Male guinea pigs (200-400 g) were killed by a blow on the head and exsanguineated. A length of small intestine was removed about 2 cm from the ileo-caecal valve. The mesentery was carefully removed and the ileum was stretched over a glass rod. By stroking tangentially away from the mesenteric attachement with a wad of cotton wool, the longitudinal muscle layer was separated and stripped from the unterlying circular muscle. Longitudinal muscle strips, 3-4 cm length, were mounted in a 10 ml organ bath containing Tyrode solution at 37° C. and bubbled with 5% carbon dioxide in oxygen. […] The strips were placed under a resting tension of 500 mg. Contractions were recorded with an isotonic pendulum lever. After equilibration for 30 min a set concentration of carbachol was applied in 10 min intervals until a consistent reaction was achieved.
Production of the concentration/reaction curve
Non-cumulative concentration-response curves for 5-HT were established by adding increasing concentrations of the agonist to the organ bath at intervals of at least 15 min. […] Each concentration was left in contact with the tissue for 1 min. […] The contractions expressed as percentage of the maximal response to 5-HT obtained from several preparations were plotted as mean values in order to obtain log-concentration-response curves.

[7] = test system: 5-HT3 receptors in the guinea pig ileum; conditions: counteracting 5-HT induced spasms; cited from earlier work
[8] = test system: rabbit vagus; conditions: in words; cited from earlier work
[9] = test system: rabbit heart; conditions: in words; cited from earlier work
[10] = molecular target: dopamine binding sites; assay: Binding to dopamine sites with tritiated haloperidol
Experimental: Several drugs e.g. metoclopramide are known for the treatment of gastrointestinal disorders (gut motility disorders). Action has been ascribed to opiates (e.g. loperamide), dopaminergic compounds (e.g. metoclopramide) although for most drugs the mode of the action is not well understood (see J. R. Malegeleda Scand. J. Gastroenterology, 19, Suppl. 96, 1984, pp. 115-121).
The compounds of the invention have insignificant action on dopamine binding sites, e.g. having an IC50 of […] or more using tritriated haloperidol.

[11] = test system: 5-HT reflex; conditions: in words; comparison drug; cited from earlier work
[12] = Properties of salt forms (solubility, stability); assay type: physicochemical; conditions: in words
[13] = molecular target: dopamine binding sites; conditions: tritiated haloperidol; read-out: IC50 dopamine sites (literature); cited from earlier work
[14] = test system: dopamine; conditions: in words; comparison drug; cited from earlier work

CN1[C@@H]2CC[C@H]1C[C@@H](OC(=O)c1c[nH]c3ccccc13)C2 [Compound E, Indol-3-yl carboxylic acid endo-8-methyl-8-aza-bicyclo-[3,2,1]oct-3-yl ester]
EC (maximal response) ([1]; Cavia porcellus, field stimulation of stomach strips, read-out: concentration producing maximal response): 0.01 µM | times more active than metoclopramide (contraction) ([1]; versus metoclopramide): 100 times | times more active than metoclopramide (gastric emptying) [2]: about 50 times | ED50 [3]: 0.07 mg/kg | effect of increased dose on stomach contents [4]: did not lead to a reduction in the stomach contents | pD'2 [5]: 5.7 | Kb [6]: 12.6 nM | action at 5-HT3 receptors in guinea pig ileum [7]: competitive antagonist of the 5-HT3 receptors in the guinea pig ileum | action against 5-HT on rabbit vagus [8]: antagonistic action against 5-HT | action against 5-HT on rabbit heart [9]: antagonistic action against 5-HT

CN1[C@@H]2CCC[C@H]1C[C@@H](OC(=O)c1csc3ccccc13)C2 [Compound F, Benzo[b]thiophen-3-yl carboxylic acid endo-9-methyl-aza-bicyclo[3,3,1]non-3-yl ester]
ED50 [3]: 0.025 mg/kg | pD'2 [5]: 5.9 | Kb [6]: 0.398 nM

CN1[C@@H]2CCC[C@H]1C[C@@H](OC(=O)c1cn(C)c3ccc(F)cc13)C2 [Compound G, 5-fluoro-1-methyl-indol-3-yl carboxylic acid endo-9-methyl-9-aza-bicyclo[3,3,1]non-3-yl ester]
ED50 [3]: 0.002 mg/kg

CNc1cc(OC)c(C(=O)NC2CN3CCC2CC3)cc1Cl (centres unmarked) [Example 71]
IC50 [10]: > 10000 nM

CN1[C@@H]2CC[C@H]1C[C@@H](OC(=O)C(CO)c1ccccc1)C2 (some centres unmarked) [atropine]
effect on the whole reflex [11]: paralyse the whole reflex

CN1[C@@H]2CCC[C@H]1C[C@@H](OC(=O)c1csc3ccccc13)C2 [hydrochloride of compound F]
solubility and stability properties of salt form [12]: especially advantageous properties, e.g. from the solubility and stability point of view

CN1[C@@H]2CCC[C@H]1C[C@@H](OC(=O)c1cn(C)c3ccc(F)cc13)C2 [hydrogen maleate of compound G]
solubility and stability properties of salt form [12]: especially advantageous properties, e.g. from the solubility and stability point of view

CCN(CC)CCNC(=O)c1cc(Cl)c(N)cc1OC [metoclopramide]
IC50 [13]: ~170 nM | dopamine action [14]: dopamine agonist action
